Measured values published in patent US4347319A, “Microbiological epoxidation process” (priority 1980, dated 1982).
Where two headings read alike, the source gives them in different places.

What was measured:
[1] = tested on: Methylomonas methanica CRL M4P NRRL B-11,205; experiment: Sec. alcohol oxidation by cell suspensions of methanol-grown cells; assay type: cell-based; conditions: sec. alcohol to methyl ketone
[2] = tested on: Methylobacterium organophilum CRL 26 NRRL B-11,222; experiment: as above; assay type: cell-based; conditions: sec. alcohol to methyl ketone
[3] = tested on: Methylobacter bovis CRL 19 NRRL B-11,217; experiment: as above; assay type: cell-based; conditions: sec. alcohol to methyl ketone
[4] = tested on: Methylococcus capsulatus CRL M1 NRRL B-11,219; experiment: as above; assay type: cell-based; conditions: sec. alcohol to methyl ketone
[5] = tested on: Methylococcus capsulatus CRL 25 NRRL B-11,221; experiment: as above; assay type: cell-based; conditions: sec. alcohol to methyl ketone
[6] = tested on: Methylobacter chroococcum CRL M6 NRRL B-11,214; experiment: as above; assay type: cell-based; conditions: sec. alcohol to methyl ketone
[7] = tested on: Methylosinus trichosporium CRL 15 NRRL B-11,202; experiment: as above; assay type: cell-based; conditions: sec. alcohol to methyl ketone
[8] = tested on: Methylobacter vinelandii CRL M5Y NRRL B-11,218; experiment: as above; assay type: cell-based; conditions: sec. alcohol to methyl ketone
[9] = tested on: Methylomonas streptobacterium CRL 17 PM3 NRRL B-11,208; experiment: as above; assay type: cell-based; conditions: sec. alcohol to methyl ketone
[10] = tested on: cell-free soluble extract of Methylosinus trichosporium OB3b (NRRL B-11,196); conditions: NAD added
Protocol: (§1) To prepare the cell-free secondary alcohol dehydrogenous (SADH) system, the washed cells were disrupted with a Wave Energy Ultrasonic Oscillator, Model W201 (Wave Energy System, Inc., Newtown, Pa.) and centrifuged at 20,000×g. for 30 minutes. […] The enzyme activity was measured with a fluorescence spectrophotometer (Perkin Elmer, Model MPF 44A) by following the formation of reduced NAD (EX 340 nm, Em 460 nm). The formation of reduced NAD was also followed with an absorption spectrophotometer at 340 nm. The assay system (3 ml.) contained: potassium phosphate buffer pH 7.0; 150 μmol.; NAD 1 μmol.; a given amount of enzyme preparation; and secondary alcohol 10 μmol. The reaction was started by the addition of substrate. One unit of enzyme activity represents the reduction of one μmole NAD per minute. Protein concentrations were determined by the Lowry method as referenced above.
(§2) The experimental procedure for the tests reported in Table XVII were as follows: 1 mg protein of crude extract was added into a 0.5 ml. 0.05 M phosphate buffer (pH 7.0) in a 10-ml. vial. […] The reaction mixture was incubated at 30° C. on a water bath. A 3 μl sample was removed with a syringe at 15 min. of incubation and was assayed with g.l.c. Catalytic activity was also assayed by fluorescence spectrophotometry.

[11] = tested on: cell-free soluble extract of Methylobacterium organophilium CRL 26 (NRRL B 11,222); conditions: NAD added
Protocol: as §1, §2

[12] = tested on: cell-free soluble extract of Methylococcus capsulatus CRL M1 (NRRL B-11,219); conditions: NAD added
Protocol: as §1, §2

[13] = tested on: P(40) particulate fraction of Methylosinus sp. (CRL-15, NRRL B-11,202); experiment: Substrate competition: effect of methane on propylene epoxidation; assay type: biochemical; conditions: 30° C.
Protocol: The oxidation of methane and propylene by particulate [(P)40 and (P)80] fractions and soluble [S(80)] fraction was measured at 30° C. by estimating the production of methanol and propylene oxide, respectively. The reaction mixtures contained in […]: 150 mM potassium phosphate buffer, pH 7.0 containing 5 mM MgCl2 b, 0.6 ml; 10μ moles NADH, and cellular fraction.
Reaction mixtures were contained in 10 ml vials at 4° C. Vials were sealed with rubber caps. The gaseous phase in the vials was removed using vacuum and then was replaced with a gas mixture of methane or propylene and oxygen at a 1:1, v/v ratio. Oxidation of other gaseous n-alkanes and n-alkanes was examined as described above. For liquid substrates, 10 μl of substrate was used directly.
The hydroxylation of methane and the epoxidation of propylene by particulate fractions of methane-utilizing bacteria required oxygen and NADH. The question of whether the same or a similar enzyme was involved in the oxidation of both substrates was examined by substrate competition experiments. The experiment consisted of determining the effect of methane on the oxidation of propylene to propylene oxide by the P(40) particulate fraction of Methylosinus sp. (CRL-15, NRRL B-11,202).

[14] = tested on: cell fractions of Methylomonas sp. (CRL-17, NRRL B-11,208); experiment: Oxidation by cell fractions P(40), P(80), S(80); assay type: biochemical; conditions: propylene to propylene oxide, methane to methanol, 30° C.
Outline: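 Cells washed and French-press disrupted in 25 mM K phosphate pH 7.0 with 5 mM MgCl2; particulate P(40), P(80) and soluble S(80) fractions from 40,000×g and 80,000×g spins. Methane or propylene (1:1 with O2) oxidised at 30° C with NADH; methanol/propylene oxide by GC; activity as μmoles product/h/mg protein.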

SMILES	Conversion Rates [1]	Conversion Rates [2]	Conversion Rates [3]	Conversion Rates [4]	Conversion Rates [5]	Conversion Rates [6]	Conversion Rates [7]	Conversion Rates [8]	Conversion Rates [9]	Conversion Rate 2-butanol to 2-butanone ([10]; growth substrate CH3 OH)	Conversion Rate 2-butanol to 2-butanone ([10]; growth substrate CH4)	Conversion Rate 2-butanol to 2-butanone ([11]; growth substrate CH3 OH)	Conversion Rate 2-butanol to 2-butanone ([11]; growth substrate CH4)	Conversion Rate 2-butanol to 2-butanone ([12]; growth substrate CH3 OH)	Conversion Rate 2-butanol to 2-butanone ([12]; growth substrate CH4)	Propylene Oxide Produced [13]	Oxidizing Activity (rate of oxidation) in cell fraction ([14]; P(40))	Oxidizing Activity (rate of oxidation) in cell fraction ([14]; P(80))	Oxidizing Activity (rate of oxidation) in cell fraction ([14]; S(80))
CCC(C)O (centres unmarked) [2-Butanol]	2.5 μmoles/hr/mg protein	2.5 μmoles/hr/mg protein	1.8 μmoles/hr/mg protein	2.0 μmoles/hr/mg protein	0.95 μmoles/hr/mg protein	1.4 μmoles/hr/mg protein	4.5 μmoles/hr/mg protein	2.0 μmoles/hr/mg protein	2.0 μmoles/hr/mg protein	2.4 nmoles/min/mg protein	4.5 nmoles/min/mg protein	2.5 nmoles/min/mg protein	1.8 nmoles/min/mg protein	2.0 nmoles/min/mg protein	3.2 nmoles/min/mg protein				
C [Methane]																0 μmoles/hr./mg. protein	2.9 μ moles of products formed per	2.7 μ moles of products formed per	0 μ moles of products formed per
C=CC [Propylene]																4.3 μmoles/hr./mg. protein	2.2 μ moles of products formed per	2.0 μ moles of products formed per	0 μ moles of products formed per
